Data on 35 compounds can be found in patent publication US20060160869A1, “Ubiquitin ligase inhibitors” (Rigel Pharmaceuticals, Inc., priority 2005, published 2006).

What is called IC50 is the point on the concentration scale where inhibition reaches its midpoint.

Assay type in all cases: biochemical
The target in test [1] is E3 (His-APC11/APC2, "APC") (Homo sapiens, UniProt Q9NYG5+Q9UJX6). Briefly: Plate-based E3 ligase assay (APC FLAG), auto-ubiquitination. To be noted: Table 2; read-out: APC IC50. As for the experimental part:
(§1) E3 (His-APC11/APC2—“APC”) auto-ubiquitination was measured as described in U.S. patent application Ser. No. 09/826,312 (Publication No. US-2002-0042083-A1), which is incorporated herein in its entirety. Details of the protocol are described below. Activity in the presence of the compound was determined relative to a parallel control in which only DMSO was added. Values of the IC50 were typically determined using 6 or 8 different concentrations of the compound, although as few as 2 concentrations may be used to approximate the IC50 value.
(§2) Nickel-coated 96-well plates (Pierce 15242) were blocked for 1 hour with 100 μl of blocking buffer at room temperature. The plates were washed 4 times with 225 μl of 1×PBS and 80 μl of the reaction buffer were added that contained 100 ng/well of Flag-ubiquitin. To this, 10 μl of the test compound diluted in DMSO were added. After the test compound was added, 10 μl of E1 (human), E2 (Ubch5c), and APC in Protein Buffer was added to obtain a final concentration of 5 ng/well of E1, 20 ng/well: of E2 and 100 ng/well of APC. The plate were shaken for 10 minutes and incubated at room temperature for 1 hour. After incubation, the plates were washed 4 times with 225 μl of 1×PBS and 100 μl/well of Antibody Mix were added to each well. The plates were incubate at room temperature for another hour after which they were washed 4 times with 225 μl of 1×PBS and 100 μl/well of Lumino substrate were added to each well. The luminescence was measured by using a BMG luminescence microplate reader.
APC Plate/gel is Anaphase Promoting Complex. This protein also belongs to E3 RING finger ligase group.

The target of a further test is MDM2 (Homo sapiens, UniProt Q00987). Briefly: Plate-based E3 ligase assay, MDM2 autoubiquitination (MDM2-FLAG). To be noted: Table 2; read-out: MDM2 IC50. As for the experimental part:
as §1, §2
In similar manner, autoubiquitination of the E3 MDM2 was determined (MDM2-FLAG). Further instruction in such assays can be found in U.S. patent application Ser. No. 10/108,767 (Publication No. US-2003-0104474 A1), which is incorporated herein in its entirety.
hMDM2 Plate/Gel is Mouse double minute 2, human homolog. This protein belongs to the E3 RING finger ligase group.

Another test deals with E2 (Ubch5c) (Homo sapiens, UniProt P61077). Briefly: E2 ligase assay, E2 auto-ubiquitination. To be noted: Table 2. As for the experimental part: E2 (Ubch5c) auto-ubiquitination was measured as described in U.S. patent application Ser. No. 09/826,312 (Publication No. US-2002-0042083-A1), which is incorporated herein in its entirety. Details of the protocol are described below. Activity in the presence of the test compound was determined relative to a parallel control in which only DMSO was added. The IC50 values were typically determined using 6 or 8 different concentrations of compound, although as few as 2 concentrations may be used to approximate IC50 values.
Corning 96-well plates (Corning 3650) were blocked with 100 μl of Blocking Buffer for 1 hour at room temperature. The plates were washed for 4 times with 225 μl of 1×PBS and 80 μl of the reaction buffer were added that contained 100 ng/well of Flag-ubiquitin. To this, 10 μl of the test compound diluted in DMSO were added. After the test compound was added, 10 μl of E1 (human) and E2 (Ubch5c) in Protein Buffer were added to obtain a final concentration of 5 ng/well of E1 and 20 ng/well of E2. The plates were shaken for 10 minutes and incubated at room temperature for 1 hour. After incubation, the reaction was stopped by adding 25 μl of loading buffer (non-reducing) per well and the plates were heated at 95° C. for 5 minutes. An aliquot of each well was run on a 10% NugePage Gel and analyzed by Western Blot using the antibody mix and Lumino substrate described below. The luminescence was measured using a BMG luminescence microplate reader.

MDM2, sequence (Q00987 whole entry): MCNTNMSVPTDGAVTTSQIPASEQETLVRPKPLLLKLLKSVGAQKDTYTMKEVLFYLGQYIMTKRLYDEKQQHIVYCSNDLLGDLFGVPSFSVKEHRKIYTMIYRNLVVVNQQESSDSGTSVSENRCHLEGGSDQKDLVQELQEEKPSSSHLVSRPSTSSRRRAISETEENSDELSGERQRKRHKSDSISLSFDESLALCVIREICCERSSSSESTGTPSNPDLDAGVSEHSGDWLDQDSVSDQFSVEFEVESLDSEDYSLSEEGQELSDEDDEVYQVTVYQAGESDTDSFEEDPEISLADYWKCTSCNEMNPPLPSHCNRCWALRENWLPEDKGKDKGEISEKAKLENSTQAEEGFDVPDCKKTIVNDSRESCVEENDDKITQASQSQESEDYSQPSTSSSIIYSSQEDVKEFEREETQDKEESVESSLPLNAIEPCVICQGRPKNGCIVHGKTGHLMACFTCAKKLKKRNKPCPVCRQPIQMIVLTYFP
E2 (Ubch5c), sequence (P61077 whole entry): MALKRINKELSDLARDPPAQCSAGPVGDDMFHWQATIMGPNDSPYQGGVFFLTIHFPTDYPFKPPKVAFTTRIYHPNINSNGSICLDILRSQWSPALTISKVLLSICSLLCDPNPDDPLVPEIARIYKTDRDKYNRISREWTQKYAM
E3 (His-APC11/APC2, "APC"), sequence (Q9NYG5 whole entry): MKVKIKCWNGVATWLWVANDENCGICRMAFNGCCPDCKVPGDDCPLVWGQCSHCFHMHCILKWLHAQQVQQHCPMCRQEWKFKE
E3 (His-APC11/APC2, "APC"), sequence (Q9UJX6 whole entry): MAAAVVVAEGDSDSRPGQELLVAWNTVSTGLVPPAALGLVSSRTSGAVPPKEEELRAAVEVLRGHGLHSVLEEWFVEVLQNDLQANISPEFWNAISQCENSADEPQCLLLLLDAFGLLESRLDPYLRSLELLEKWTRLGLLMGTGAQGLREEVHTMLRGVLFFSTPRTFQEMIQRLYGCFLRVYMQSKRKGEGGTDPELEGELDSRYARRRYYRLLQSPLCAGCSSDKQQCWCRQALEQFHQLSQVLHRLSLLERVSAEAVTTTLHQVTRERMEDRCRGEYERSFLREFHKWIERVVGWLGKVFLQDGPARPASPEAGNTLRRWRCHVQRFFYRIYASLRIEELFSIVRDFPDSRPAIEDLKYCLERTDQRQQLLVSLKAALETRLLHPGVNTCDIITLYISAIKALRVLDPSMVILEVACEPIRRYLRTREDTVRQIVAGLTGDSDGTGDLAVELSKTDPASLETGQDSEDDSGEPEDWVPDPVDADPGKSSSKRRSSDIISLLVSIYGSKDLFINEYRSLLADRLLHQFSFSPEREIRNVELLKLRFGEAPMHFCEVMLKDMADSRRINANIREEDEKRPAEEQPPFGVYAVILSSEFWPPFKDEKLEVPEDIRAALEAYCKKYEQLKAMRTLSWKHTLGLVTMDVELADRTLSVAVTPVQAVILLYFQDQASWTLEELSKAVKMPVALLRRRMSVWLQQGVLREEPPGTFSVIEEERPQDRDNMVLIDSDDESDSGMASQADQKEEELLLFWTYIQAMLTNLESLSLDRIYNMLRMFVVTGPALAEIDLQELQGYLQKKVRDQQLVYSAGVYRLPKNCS

On to `COc1cccc(CN(Cc2ccc(C(=O)N3CCNCC3)cc2)c2nc(-c3ccc(C)cc3)cs2)c1OC` [compound 230], for which the IC50 in test [1] was 1 to 20 µM; on MDM2 it was at least 20 µM.
Taken in the same sequence, the figures for `COc1ccc(-c2csc(N(CCN(C(C)C)C(C)C)Cc3ccc(C(=O)N4CCNCC4)cc3)n2)cc1` [compound 227] were at least 20 µM and at least 20 µM.
On the same counts, the results for `O=C(c1ccc(CN(CCOc2ccccc2)c2nc(-c3ccc(Cl)cc3)cs2)cc1)N1CCNCC1` [compound 252] are 1 to 20 µM and at least 20 µM.
Regarding `COc1ccccc1-c1csc(N(Cc2ccc(C(=O)N3CCNCC3)cc2)Cc2cccc(OC(F)(F)F)c2)n1` [compound 328], the values for the IC50 (in test [1]; at MDM2; at E2 (Ubch5c)) were 1 to 20 µM, 1 to 20 µM and at least 20 µM, respectively.
On to `O=C(c1ccc(CN(CCOc2ccccc2)c2nc(-c3ccc(F)cc3)cs2)cc1)N1CCNCC1` [compound 290], for which the IC50 (in test [1]; on MDM2) was at least 20 µM each time.
As for `COc1cccc(-c2csc(N(Cc3ccccc3)Cc3ccc(C(=O)NCC(=O)O)cc3)n2)c1` [compound 177], on MDM2, the half-inhibitory concentration (IC50) is below 1 µM.
Take `CC(C)N(CCN(Cc1ccc(C(=O)N2CCNCC2)cc1)c1nc(-c2ccccc2Cl)cs1)C(C)C` [compound 225]: the IC50 (in test [1]; on MDM2) was at least 20 µM throughout.
With `COc1ccc(OC)c(-c2csc(N(Cc3ccccc3)Cc3ccc(C(=O)NCC(=O)O)cc3)n2)c1` [compound 207], on MDM2, the IC50 is 1 to 20 µM.
As for `O=C(c1ccc(CN(CCOc2ccccc2)c2nc(-c3ccc(Br)cc3)cs2)cc1)N1CCNCC1` [compound 344], the IC50 (in test [1]; at MDM2) was 1 to 20 µM each time.
`COc1cccc(-c2csc(N(CCN(C(C)C)C(C)C)Cc3ccc(C(=O)N4CCNCC4)cc3)n2)c1` [compound 231]: the IC50 (in test [1]; on MDM2) was at least 20 µM each time.
For the compound `COc1cccc(CN(Cc2ccc(C(=O)N3CCNCC3)cc2)c2nc(-c3ccc(C)cc3)cs2)c1OC` [compound 283], the IC50 in test [1] is at least 20 µM.
Regarding `COc1ccc(OC)c(-c2csc(N(CCOc3ccccc3)Cc3ccc(C(=O)N4CCNCC4)cc3)n2)c1` [compound 268], the IC50 (in test [1]; on MDM2) was at least 20 µM each time.
For `CCN(Cc1ccc(C(=O)NCc2cccc(CN)c2)cc1)c1nc(-c2ccc(-c3ccccc3)cc2)cs1` [compound 65], the IC50 (in test [1]; on MDM2) was 1 to 20 µM each time.
Turning to `COc1cccc(CN(Cc2ccc(C(=O)N3CCNCC3)cc2)c2nc(-c3ccc(Cl)cc3)cs2)c1OC` [compound 245], the IC50 in test [1] is 1 to 20 µM; at MDM2, at least 20 µM.
For the compound `COc1cccc(CN(Cc2ccc(C(=O)N3CCNCC3)cc2)c2nc(-c3ccccc3Cl)cs2)c1OC` [compound 345], the IC50 in test [1] was 1 to 20 µM; at MDM2 it was at least 20 µM; at E2 (Ubch5c), at least 20 µM.
On to `O=C(c1ccc(CN(c2nc(-c3ccc(Cl)cc3)cs2)c2cccc3ccccc23)cc1)N1CCNCC1` [compound 289], for which the IC50 (in test [1]; on MDM2) was at least 20 µM in each case.
In the case of `O=C(O)CNC(=O)c1ccc(CN(Cc2ccccc2)c2nc(-c3ccccc3)cs2)cc1` [compound 216], the IC50 on MDM2 lay in the range of 1 to 20 µM.
Turning to `COc1ccc(-c2csc(N(Cc3ccc(C(=O)N4CCNCC4)cc3)Cc3cccc(OC(F)(F)F)c3)n2)cc1` [compound 222], the IC50 (in test [1]; at MDM2) was at least 20 µM each time.
Consider `COc1ccc(-c2csc(N(CCOc3ccccc3)Cc3ccc(C(=O)N4CCNCC4)cc3)n2)cc1` [compound 223], for which the IC50 (in test [1]; at MDM2) was at least 20 µM in each case.
Turning to `O=C(c1ccc(CN(Cc2cccc(OC(F)(F)F)c2)c2nc(-c3cccc([N+](=O)[O-])c3)cs2)cc1)N1CCNCC1` [compound 228], the IC50 in test [1] is 1 to 20 µM; on MDM2, at least 20 µM.
With `COc1ccc(OC)c(-c2csc(N(Cc3ccc(C(=O)NCC(=O)O)cc3)c3ccccc3F)n2)c1` [compound 215], the IC50 was 1 to 20 µM in test [1] and below 1 µM at MDM2.
As for `CCN(Cc1ccc(C(=O)NCC(=O)O)cc1)c1nc(-c2ccc(Cl)cc2)cs1` [compound 146, N-(4-{[[4-(4-chlorophenyl)-1,3-thiazol-2-yl](ethyl)amino]methyl}benzoyl)glycine], the IC50 on MDM2 was at least 20 µM.
Take `COc1cccc(CN(Cc2ccc(C(=O)N3CCNCC3)cc2)c2nc(-c3cccc([N+](=O)[O-])c3)cs2)c1OC` [compound 224]: the IC50 (in test [1]; on MDM2) was at least 20 µM throughout.
Regarding `CN(Cc1ccc(C(=O)NC(Cc2ccccc2)C(=O)O)cc1)c1nc(-c2ccc(Cl)cc2)cs1` (stereo not drawn) [compound 15], the IC50 (in test [1]; at MDM2) was 1 to 20 µM each time.
Regarding `Cc1ccc(-c2csc(N(Cc3ccc(C(=O)N4CCNCC4)cc3)Cc3cccc(OC(F)(F)F)c3)n2)cc1` [compound 235], the IC50 (in test [1]; on MDM2) was 1 to 20 µM in each case.
For `COc1ccccc1-c1csc(N(CCN(C(C)C)C(C)C)Cc2ccc(C(=O)N3CCNCC3)cc2)n1` [compound 292], the IC50 (in test [1]; on MDM2) was at least 20 µM throughout.
As to `O=C(c1ccc(CN(Cc2cccc(OC(F)(F)F)c2)c2nc(-c3ccc(Br)cc3)cs2)cc1)N1CCNCC1` [compound 343], the IC50 (in test [1]; on MDM2) was 1 to 20 µM in each case.
As to `COc1ccc(-c2csc(N(Cc3ccc(C(=O)N4CCNCC4)cc3)Cc3cccc(OC)c3OC)n2)cc1` [compound 291], the IC50 in test [1] was 1 to 20 µM; on MDM2 it was at least 20 µM.
Taken in the same sequence, the figures for `COc1ccc(OC)c(-c2csc(N(Cc3ccc(C(=O)N4CCNCC4)cc3)Cc3cccc(OC(F)(F)F)c3)n2)c1` [compound 267] were 1 to 20 µM and at least 20 µM.
Turning to `CCN(Cc1ccc(C(=O)NCC(=O)O)cc1)c1nc(-c2ccc(-c3ccccc3)cc2)cs1` [compound 193], at MDM2, the IC50 fell in the range of 1 to 20 µM.
Turning to `O=C(c1ccc(CN(Cc2cccc(OC(F)(F)F)c2)c2nc(-c3ccc(Cl)c(Cl)c3)cs2)cc1)N1CCNCC1` [compound 359], the IC50 (in test [1]; at MDM2) was 1 to 20 µM in each case.
In the case of `O=C(c1ccc(CN(Cc2cccc(OC(F)(F)F)c2)c2nc(-c3ccc(Cl)cc3)cs2)cc1)N1CCNCC1` [compound 251], the IC50 (in test [1]; on MDM2) was at least 20 µM each time.
As to `Cc1sc(N(C)Cc2ccc(C(=O)NCc3cccc(CN)c3)cc2)nc1-c1ccccc1` [compound 14], the IC50 (in test [1]; on MDM2) was at least 20 µM in each case.
Turning to `COc1cccc(CN(Cc2ccc(C(=O)N3CCNCC3)cc2)c2nc(-c3ccc(Cl)c(Cl)c3)cs2)c1OC` [compound 297], the results for the IC50 (in test [1]; on MDM2; against E2 (Ubch5c)) were 1 to 20 µM, 1 to 20 µM and at least 20 µM, respectively.
As to `O=C(O)CNC(=O)c1ccc(CN(CCc2ccccc2)c2nc(-c3ccccc3)cs2)cc1` [compound 186], on MDM2, the IC50 lay within 1 to 20 µM.
